In paper PMC3724348 (Biochemistry, 2013):
Entries after “also recorded” stand apart in the source; their conditions may differ.

Experiments:
[1] = test system: VDR target genes IGFBP-3, TRPV6 and CYP24A1 in LNCaP cells; assay: Semi-quantitative real time PCR, VDR target genes in LNCaP cells; format: cell-based, human
HL-60 cells [2] = assay: HL60 differentiation assay; format: cell-based, human; settings: 4 days, 1,25(OH)2D3 alone
[3] = test system: AR target genes UGT1A1 and PSA in LNCaP cells; assay: Semi-quantitative real time PCR, AR target genes in LNCaP cells; format: cell-based, human; settings: 18 h
[4] = target: interaction between VDR and SRC2–3 (Homo sapiens, UniProt P11473, DEL165-215); assay: HTS FP assay, VDR–SRC2–3 inhibition; format: binding; settings: HTS campaign; Texas Red-labeled SRC2–3
VDR = VDR (Homo sapiens, UniProt P11473); assay: VDR ligand competition FP assay; format: binding; settings: with respect to 100% free probe (55 mP) measured in the absence of VDR
SRC2 = assay: Isothermal titration calorimetry GW0742–SRC2; format: binding
TRβ–SRC2–2 interaction = TRβ–SRC2–2 interaction (Homo sapiens, UniProt P10828); assay: FP assay TRβ–SRC2–2 inhibition; format: binding
PPARγ–DRIP2 interaction = target: T1, PPARγ–DRIP2 interaction (Homo sapiens, UniProt P37231); assay: FP assay PPARγ–DRIP2; format: binding
T1 sequence (P37231 238-503 limits assumed): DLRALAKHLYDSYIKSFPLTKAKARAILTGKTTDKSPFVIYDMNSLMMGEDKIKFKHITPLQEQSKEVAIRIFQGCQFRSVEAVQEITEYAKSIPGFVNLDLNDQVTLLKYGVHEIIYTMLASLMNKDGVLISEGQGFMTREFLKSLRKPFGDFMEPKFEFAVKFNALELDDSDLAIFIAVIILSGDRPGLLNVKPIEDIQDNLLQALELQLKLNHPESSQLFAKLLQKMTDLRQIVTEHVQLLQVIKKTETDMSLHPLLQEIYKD

PPARγ [5] = target: PPARγ (Homo sapiens, UniProt P37231); assay: One-hybrid luciferase transcription assay in HEK 293T cells; format: cell-based
Cell viability = format: cell-based, human; settings: human
HEK 293T cells = assay: Cell viability; format: cell-based, human; settings: GW0742 18.7 µM; CellTiter-Glo
VDR–SRC2 interaction = VDR–SRC2 interaction (Homo sapiens, UniProt P11473, DEL165-215); assay: Western pull-down assay VDR-LBD and SRC2 bearing all three NIDs; format: binding
[6] = test system: PPARγ target gene ANGPTL4 in LNCaP cells; assay: Semi-quantitative real time PCR, PPARγ target gene in LNCaP cells; format: cell-based, human; settings: 18 h
[7] = test system: TR target gene BTG2 in LNCaP cells; assay: Semi-quantitative real time PCR, TR target gene in LNCaP cells; format: cell-based, human; settings: 18 h
HL-60 cells [8] = assay: HL-60 cell death in differentiation assay; format: cell-based, human; settings: 4 days
[9] = target: VDR-SRC2–3 Alexa Fluor 647 interaction (Homo sapiens, UniProt P11473, DEL165-215); assay: VDR–SRC2–3 FP assay in the presence of 1 mM or 100 mM 2-mercaptoethanol; format: binding; settings: small molecules 50 µM; Alexa Fluor 647 SRC2–3
estrogen receptor α = settings: HTS campaign; ref AID:588513, pubchem; cited from earlier work
glucocorticoid receptor = settings: HTS campaign; ref AID:588533, pubchem; cited from earlier work
PPARγ [10] = settings: HTS campaign; ref AID588537, pubchem; cited from earlier work
retinoid X receptor = settings: HTS campaign; ref AID:588546, pubchem; cited from earlier work
TRβ = settings: HTS campaign; ref AID:588547, pubchem; cited from earlier work
[11] = test system: ANGPTL4 in HT29 colon cancer cells; settings: GW0742 1 µM; cited from earlier work
HEK293T cells = assay: Toxicity in HEK293T cells; settings: at a concentration of 45.8 µM; AID:602204
[12] = GW0742 20 µM + 1,25(OH)2D3 10 nM, 18 h

TRβ–SRC2–2 interaction, sequence (P10828 217-461 limits assumed): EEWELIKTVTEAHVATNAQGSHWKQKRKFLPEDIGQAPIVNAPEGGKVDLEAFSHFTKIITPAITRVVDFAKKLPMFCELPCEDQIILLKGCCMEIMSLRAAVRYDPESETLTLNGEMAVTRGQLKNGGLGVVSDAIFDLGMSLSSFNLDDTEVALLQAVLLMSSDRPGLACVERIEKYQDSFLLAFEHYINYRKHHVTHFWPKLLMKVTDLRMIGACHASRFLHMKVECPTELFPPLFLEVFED

SMILES: C=C1/C(=C\C=C2/CCC[C@]3(C)[C@@H]([C@H](C)CCCC(C)(C)O)CC[C@@H]23)C[C@@H](O)C[C@@H]1O [1,25(OH)2D3, 1,25-dihydroxyvitamin D3]
- CYP24A1 expression ([1]; 1,25(OH)2D3 10 nM, 6 hours and 18 hours): induction; also recorded: moderately upregulated
- IGFBP-3 expression ([1]; 1,25(OH)2D3 10 nM, 18 h): strongly induced
- TRPV6 expression ([1]; 1,25(OH)2D3 10 nM, 18 h): strongly induced
- HL-60 cell differentiation (HL-60 cells [2]): strong

SMILES: C[C@]12CCC(=O)C[C@@H]1CC[C@@H]1[C@@H]2CC[C@]2(C)[C@@H](O)CC[C@@H]12 [DHT, dihydrotestosterone]
- UGT1A1 expression ([3]; DHT 10 nM): upregulated

SMILES: Cc1cc(SCc2sc(-c3ccc(C(F)(F)F)c(F)c3)nc2C)ccc1OCC(=O)O [GW0742]
- VDR–SRC2–3 inhibition (FP assay) IC50 [4]: inconclusive
- extent of inhibition of VDR–ligand binding (VDR): partial inhibition
- interaction between GW0742 and SRC2 (ITC) (SRC2): no specific interaction was observed
- IC50 (TRβ–SRC2–2 interaction): 59.9 ± 9.5 µM
- EC50 (PPARγ–DRIP2 interaction): 2600 nM
- IC50 (PPARγ–DRIP2 interaction): > 86 µM
- concentration with significant inhibition between PPARγ-LBD and DRIP2 (PPARγ–DRIP2 interaction; FP assay): > 86 µM
- concentration with significant PPARγ-mediated transcriptional inhibition (PPARγ [5]): > 20 µM
- viability at 16 h, 37.5 µM (Cell viability): 93 ± 3%
- toxicity (HEK 293T cells): no toxicity was observed
- inhibition of the VDR–SRC2 interaction (pull-down) (VDR–SRC2 interaction; in the presence of VDR ligand): blocked in a dose dependent manner
- concentration with significant inhibition of the VDR–SRC2 interaction (VDR–SRC2 interaction; residual bands still detected): 80 to 120 µM
- effect on DHT-induced PSA expression ([3]; GW0742 20 µM + DHT 10 nM): significant inhibitory effect
- effect on DHT-induced UGT1A1 expression ([3]; GW0742 20 µM + DHT 10 nM): significant inhibitory effect
- effect on rosiglitazone-induced ANGPTL4 expression ([6]; GW0742 20 µM + rosiglitazone 5 µM): unaffected; also recorded: inconclusive
- effect on T3-mediated down-regulation of BTG2 ([7]; GW0742 20 µM + T3 10 nM): reversed
- effect on 1,25(OH)2D3-induced IGFBP-3 expression [1, 12]: selectively inhibited
- effect on 1,25(OH)2D3-induced TRPV6 expression [1, 12]: selectively inhibited
- effect on 1,25(OH)2D3-induced CYP24A1 expression ([1]; only at 6 hours and 50 µM GW0742 + 1,25(OH)2D3 10 nM): significant inhibition
- concentration with significant HL-60 cell death (HL-60 cells [8]): 150 µM
- inhibition of VDR–SRC2–3 interaction at 100 mM ME in comparison with 1 mM ME [9]: not influenced
- antagonistic activity ERα (estrogen receptor α): Antagonistic activity
- antagonistic activity GR (glucocorticoid receptor): Antagonistic activity
- antagonistic activity PPARγ (PPARγ [10]): Antagonistic activity
- antagonistic activity RxR (retinoid X receptor): Antagonistic activity
- antagonistic activity TRβ (TRβ): Antagonistic activity
- ANGPTL4 activation [11]: activation
- cell death (HEK293T cells): 18%

SMILES: CN(CCOc1ccc(CC2SC(=O)NC2=O)cc1)c1ccccn1 (centres unmarked) [Rosiglitazone]
- ANGPTL4 expression ([6]; rosiglitazone 5 µM): induced

SMILES: N[C@@H](Cc1cc(I)c(Oc2ccc(O)c(I)c2)c(I)c1)C(=O)O [T3, triiodothyronine]
- BTG2 expression ([7]; T3 10 nM): down-regulated
